The text below walks through data of patent US20230150986A1, “ANTAGONISTS OF THE MUSCARINIC ACETYLCHOLINE RECEPTOR M4” (Vanderbilt University, priority 2019, published 2023).

A word on the IC50: it is the concentration that inhibits the measured activity by half.

This assay concerns the target T1, Human M4 (Homo sapiens, UniProt P08173).
T1 construct: Human or rat M4 cDNA, along with the chimeric G protein Gq,5, were transfected into Chinese hamster ovary (CHO-K1) cells; expressed in transfected cells; host or cells: CHO-K1 (M4/Gqi5/CHO)
T1 sequence (P08173 1-479): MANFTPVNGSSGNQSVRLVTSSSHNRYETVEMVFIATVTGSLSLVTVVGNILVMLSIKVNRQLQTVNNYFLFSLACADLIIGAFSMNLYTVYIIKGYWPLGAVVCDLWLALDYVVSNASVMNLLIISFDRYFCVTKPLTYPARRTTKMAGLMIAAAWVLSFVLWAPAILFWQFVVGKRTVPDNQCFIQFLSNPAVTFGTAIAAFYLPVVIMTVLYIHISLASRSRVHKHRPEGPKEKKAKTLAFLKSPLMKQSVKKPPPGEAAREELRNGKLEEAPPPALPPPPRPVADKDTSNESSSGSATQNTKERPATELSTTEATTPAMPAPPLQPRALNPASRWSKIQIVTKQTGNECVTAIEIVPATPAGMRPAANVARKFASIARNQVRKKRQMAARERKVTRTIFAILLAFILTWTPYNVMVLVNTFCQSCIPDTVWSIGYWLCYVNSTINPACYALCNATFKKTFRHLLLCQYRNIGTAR
Description: mAChR M4 cell-based functional assay (calcium flux, decrease of EC80 acetylcholine response). The note with it: for Human M4 Emin: % ACh maximum at 30 μM; for IC50: CHO-K1 cells with human M4 and Gqi5, EC80 acetylcholine. As for the experimental part: Human or rat M4 cDNA, along with the chimeric G protein Gq,5, were transfected into Chinese hamster ovary (CHO-K1) cells purchased from the American Type Culture Collection using Lipofectamine2000. M4/Gqi5/CHO cells were grown in Ham's F-12 medium containing 10% heat-inactivated fetal bovine serum (FBS), 20 mM HEPES, 500 μg/mL G^418 sulfate, and 200 μg/mL Hygromycin B.
For high throughput measurement of agonist-evoked increases in intracellular calcium, CHO-K1 cells stably expressing muscarinic receptors were plated in growth medium lacking G418 and hygromycin at 15,000 cells/20 μL/well in Greiner 384-well black-walled, tissue culture (TC)-treated, clear-bottom plates (VWR). Cells were incubated overnight at 37° C. and 5% CO2. The next day, cells were washed using an ELX 405 (BioTek) with assay buffer; the final volume was then aspirated to 20 μL. Next, 20 μL of a 2.3 μM stock of Fluo-4/acetoxymethyl ester (Invitrogen, Carlsbad, Calif.), prepared as a 2.3 mM stock in DMSO and mixed in a 1:1 ratio with 10% (w/v) Pluronic F-127 and diluted in assay buffer, was added to the wells and the cell plates were incubated for 50 min at 37° C. and 5% CO2. Dye was removed by washing with the ELX 405 and the final volume was aspirated to 20 μL. Compound master plates were formatted in a 10 point concentration-response curve (CRC) format (1:3 dilutions) in 100% DMSO with a starting concentration of 10 or 1 mM using a BRAVO liquid handler (Agilent). Test compound CRCs were then transferred to daughter plates (240 nL) using the Echo acoustic plate reformatter (Labcyte, Sunnyvale, Calif.) and then diluted into assay buffer (40 μL) to a 2× stock using a Thermo Fisher Combi (Thermo Fisher Scientific, Waltham, Mass.).
Calcium flux was measured using the Functional Drug Screening System (FDSS) 6000 or 7000 (Hamamatsu Corporation, Tokyo, Japan) as an increase in the fluorescent static ratio. Compounds were applied to cells (20 μL, 2×) using the automated system of the FDSS at 2 seconds into the protocol and the data were collected at 1 Hz. At 143 s, 10 μL of an EC20 concentration of the muscarinic receptor agonist acetylcholine was added (5×), followed by the addition of […] of an EC80 concentration of acetylcholine at the 268 s time point (5×). Agonist activity was analyzed as a concentration-dependent increase in calcium mobilization upon compound addition. Positive allosteric modulator activity was analyzed as a concentration-dependent increase in the EC2o acetylcholine response. Antagonist activity was analyzed as a concentration-dependent decrease in the EC80 acetylcholine response; for the purposes of the tables herein, an IC50 (inhibitory concentration 50) was calculated as a concentration-dependent decrease of the response elicited by an EC80 concentration of acetylcholine. Concentration-response curves were generated using a four-parameter logistical equation in XLFit curve fitting software (IDBS, Bridgewater, N.J.) for Excel (Microsoft, Redmond, Wash.) or Prism (GraphPad Software, Inc., San Diego, Calif.) or the Dotmatics software platform (Dotmatics, Bishop's Stortford, UK).
Compounds were synthesized as described above. Activity (IC50 and Emin) was determined in the mAChR M4 cell-based functional assay as described above and the data are shown in Table 2.
In general terms: A change in cytosolic calcium serves as a functional read-out for many receptors and channels.

Take `[2H]C([2H])(C1CCOCC1(F)F)N1C[C@H]2C[C@H](Nc3ccc(-c4cc(F)cc(F)c4F)nn3)C[C@H]2C1` (stereo partly drawn) [Compound 93, (3aR,5s,6aS)-2-((3,3-difluorotetrahydro-2H-pyran-4-yl)methyl-d2)-N-(6-(2,3,5-trifluorophenyl)pyridazin-3-yl)octahydrocyclopenta[c]pyrrol-5-amine]: the “Human M4 Emin” value came to 3% and the IC50 was found to be 3.9 nM.
Consider `[2H]C(C)(c1ccccn1)N1C[C@H]2C[C@H](Nc3ccc(-c4cc(F)cc(F)c4F)nn3)C[C@H]2C1` (stereo partly drawn) [Compound 15, (3aR,5s,6aS)-2-(1-(pyridin-2-yl)ethyl-1-d)-N-(6-(2,3,5-trifluorophenyl)pyridazin-3-yl)octahydrocyclopenta[c]pyrrol-5-amine], for which the “Human M4 Emin” value was 2% and the half-maximal inhibitory concentration (IC50) is 95.2 nM.
As to `CC(C1CCOCC1)N1C[C@H]2C[C@H](Nc3ccc(-c4cc(F)cc(F)c4F)nn3)C[C@H]2C1` (stereo partly drawn) [Compound 10, (3aR,5s,6aS)-2-(1-(tetrabydro-2H-pyran-4-yl)ethyl)-N-(6-(2,3,5-trifluorophenyl)pyridazin-3-yl)octahydrocyclopenta[c]pyrrol-5-amine], the “Human M4 Emin” value is 4% and the IC50 stood at 5.7 nM.
In the case of `Cc1cccnc1CN1C[C@H]2C[C@H](Nc3ccc(-c4cc(F)cc(F)c4F)nn3)C[C@H]2C1` [Compound 23, (3aR,5s,6aS)-2-((3-methylpyridin-2-yl)methyl)-N-(6-(2,3,5-trifluorophenyl)pyridazin-3-yl)octahydrocyclopenta[c]pyrrol-5-amine], the “Human M4 Emin” value is listed as 5% and the IC50 is 42.4 nM.
On to `[2H]C([2H])([C@@H]1CCCOC1)N1C[C@H]2C[C@H](Nc3ccc(-c4cc(F)cc(F)c4F)nn3)C[C@H]2C1` [Compound 66, (3aR,5s,6aS)-2-(((S)-tetrahydro-2H-pyran-3-yl)methyl-d2)-N-(6-(2,3,5-trifluorophenyl)pyridazin-3-yl)octahydrocyclopenta[c]pyrrol-5-amine], for which the “Human M4 Emin” value stood at 3% and the half-inhibitory concentration (IC50) is 12 nM.
On to `Fc1cc(F)c(F)c(-c2ccc(N[C@H]3C[C@@H]4CN(CC5CC(F)(F)C5)C[C@@H]4C3)nn2)c1` [Compound 57, (3aR,5s,6aS)-2-((3,3-difluorocyclobutyl)methyl)-N-(6-(2,3,5-trifluorophenyl)pyridazin-3-yl)octahydrocyclopenta[c]pyrrol-5-amine], for which the “Human M4 Emin” value is given as 3% and the IC50 is 25 nM.
On to `Fc1cc(F)c(F)c(-c2ccc(N[C@H]3C[C@@H]4CN(Cc5ccccc5F)C[C@@H]4C3)nn2)c1` [Compound 89, (3aR,55,6aS)-2-(2-fluorobenzyl)-N-(6-(2,3,5-trifluoropheny)pyridazin-3-yl)octahydrocyclopenta[c]pyrrol-5-amine], for which the “Human M4 Emin” value is given as 3% and the IC50 was 170 nM.
For the compound `Fc1cc(F)c(F)c(-c2ccc(N[C@H]3C[C@@H]4CN(C5CCCCC5)C[C@@H]4C3)nn2)c1` [Compound 34, (3aR,5s,6aS)-2-cyclohexyl-N-(6-(2,3,5-trifluorophenyl)pyridazin-3-yl)octahydrocyclopenta[c]pyrrol-5-amine], the “Human M4 Emin” value is 2% and the IC50 stood at 38.7 nM.
Turning to `[2H]C([2H])([C@H]1[C@@H]2COC[C@@H]21)N1C[C@H]2C[C@H](Nc3ccc(-c4cc(F)cc(F)c4F)nn3)C[C@H]2C1` [Compound 76, (3aR,5s,6aS)-2-(((1R,58,6s)-3-oxabicyclo[3.1.0]hexan-6-yl)methyl-d2)-N-(6-(2,3,5-trifluorophenyl)pyridazin-3-yl)octahydrocyclopenta[c]pyrrol-5-amine], the “Human M4 Emin” value is given as 3% and the IC50 turned out to be 0.59 nM.
Take `CC1(C)CC(N2C[C@H]3C[C@H](Nc4ccc(-c5cc(F)cc(F)c5F)nn4)C[C@H]3C2)CC(C)(C)O1` [Compound 7, (3aR,5s,6aS)-2-(2,2,6,6-tetramethyltetrahydro-2H-pyran-4-yl)-N-(6-(2,3,5-trifluorophenyl)pyridazin-3-yl)octahydrocyclopenta[c]pyrrol-5-amine]: the “Human M4 Emin” value was 4% and the IC50 is 215 nM.
Turning to `Fc1cc(F)c(F)c(-c2ccc(N[C@H]3C[C@@H]4CN(CCC5COC5)C[C@@H]4C3)nn2)c1` [Compound 84, (3aR,5s,6aS)-2-(2-(oxetan-3-yl)ethyl)-N-(6-(2,3,5-trifluorophenyl)pyridazin-3-yl)octahydrocyclopenta[c]pyrrol-5-amine], the “Human M4 Emin” value was 4% and the IC50 was 72 nM.
On the same counts, the results for `Fc1ccc(OCCN2C[C@H]3C[C@H](Nc4ccc(-c5cc(F)cc(F)c5F)nn4)C[C@H]3C2)cc1` [Compound 58, (3aR,5s,6aS)-2-(2-(4-fluorophenoxy)ethyl)-N-(6-(2,3,5-trifluorophenyl)pyridazin-3-yl)octahydrocyclopenta[c]pyrrol-5-amine] are 4% and 170 nM.
On the same counts, the results for `[2H]C([2H])(N1C[C@H]2C[C@H](Nc3ccc(-c4cc(F)cc(F)c4F)nn3)C[C@H]2C1)C1(C)CCCCO1` (stereo partly drawn) [Compound 50, (3aR,5s,6aS)-2-((2-methyltetrahydro-2H-pyran-2-yl)methyl-d2)-N-(6-(2,3,5-trifluorophenyl)pyridazin-3-yl)octahydrocyclopenta[c]pyrrol-5-amine] are 2% and 6.89 nM.
On to `[2H]C([2H])(C1CC(C)(O)C1)N1C[C@H]2C[C@H](Nc3ccc(-c4cc(F)cc(F)c4F)nn3)C[C@H]2C1` (stereo partly drawn) [Compound 55, 1-methyl-3-(((3aR,5s,6aS)-5-((6-(2,3,5-trifluorophenyl)pyridazin-3-yl)amino)hexahydrocyclopenta[c]pyrrol-2(1H)-yl)methyl-d2)cyclobutan-1-ol], for which the “Human M4 Emin” value is reported as 5% and the half-maximal inhibitory concentration (IC50) is 15 nM.
On the same counts, the results for `Fc1cc(F)c(F)c(-c2ccc(N[C@H]3C[C@@H]4CN(CC5CCCOC5)C[C@@H]4C3)nn2)c1` (single isomer, unassigned) [Compound 24] are 3% and 13.7 nM.
Turning to `[2H]C([2H])(C1CCOCC1)N1C[C@H]2C[C@H](Nc3ccc(-c4cc(F)cc(F)c4F)nn3)C[C@H]2C1` [Compound 81, (3aR,5s,6aS)-2-((tetrahydro-2H-pyran-4-yl)methyl-d2)-N-(6-(2,3,5-trifluorophenyl)pyridazin-3-yl)octahydrocyclopenta[c]pyrrol-5-amine], the “Human M4 Emin” value is 3% and the half-inhibitory concentration (IC50) stood at 6.7 nM.
Consider `Fc1cc(F)c(F)c(-c2ccc(N[C@H]3C[C@@H]4CN(CC5CCCCO5)C[C@@H]4C3)nn2)c1` (single isomer, unassigned) [Compound 26], for which the “Human M4 Emin” value came to 3% and the half-maximal inhibitory concentration (IC50) amounted to 1.24 nM.
